In US7371775B2, “7-carboxymethyloxy-3′,4′,5-trimethoxy flavone monohydrate, the preparation method and uses thereof” (Dong-A Pharmaceuticals Co., Ltd, priority 2003, dated 2008):
Read-outs that look alike come from different tables or passages of the source.

Key:
[1] = test system: gastric mucosal damage induced by ethanolic-HCl; experiment: Gastric mucosal damaged model induced by ethanolic-HCl (ulcer index); type: in vivo, SD male rats; details: rats, oral; for ED50: Rattus norvegicus, 1 hour before 150 mM HCl-80% ethanol, ulcer index
Method: SD male rats (250-350 g) were fasted for 24 hours. The compound of the present invention was orally administered in suspension of 5% HPMC, and after 1 hour, 1.5 ml of 150 mM HCl-80% ethanol was orally administered. After 1 hour, the rats were sacrificed and the stomachs were extracted to measure ulcer index. The ulcer index was shown by the area (mm^2) of hemorrhage lesion (Mizui, T, et al., Jpn. J. Pharmacol. 1983, 33: 939).
Rebamipide [2-(4-chlorobenzoylamino)-3-(2-(1H)-quinolinone-4-yl)propanonic acid] (Trade Name: Mucosta) was used as a control medicine.

[2] = Test of conversion of ethanol solvate into monohydrate: weight changes at 25° C., 75% relative humidity; type: physicochemical
Method: 7-carboxymethyloxy-3′,4′,5-trimethoxy flavone.monohydrate prepared in the above example 1 or example 2 was measured by using a weighing bottle (6 cm in diameter). 1 g of the 7-carboxymethyloxy-3′,4′,5-trimethoxy flavone.monohydrate was prepared as a sample. The sample was kept in a receptacle in which temperature was set at 25° C. and 75% relative humidity. On the let, 1st, 2nd, 3rd and 6th day, the weight of samples were measured.
Weight changes of 7-carboxymethyloxy-3′,4′,5-trimethoxy flavone.ethanol solvate prepared in the above example 3 were also investigated by the same method as mentioned above, and the results are shown in Table 2.

[3] = Hygroscopicity test: weight changes at 25° C., 75% relative humidity; type: physicochemical
Method: 7-carboxymethyloxy-3′,4′,5-trimethoxy flavone.monohydrate prepared in the above example 1 or example 2 was exactly measured by using a weighing bottle (6 cm in diameter). 1 g of the 7-carboxymethyloxy-3′,4′,5-trimethoxy flavone.monohydrate was prepared as a sample. The sample was kept in a vessel in which temperature was set; at 25° C. and 75% relative humidity was maintained. Weight changes of the sample were measured after 2, 4, and 6 hours and on the first day, on the 3rd day, and on the 6th day. The amount of weight change was calculated as percentage to the starting weight of the sample and the results are shown in Table 1.
Weight changes of 7-carboxymethyloxy-3′,4′,5-trimethoxy flavone.anhydride prepared in the comparative example were also measured by the same method as mentioned above, and the results are shown in Table 1.

[4] = test system: TNBS-induced colitis model; experiment: Model of inflammatory bowel diseases induced with TNBS (lesion score); type: in vivo, male SD rats
Method: The modified method of Shibata et al. (Dig. Endosc. 1993, 5: 13) was used. 7 week-old male SD rats (CRJ) were fasted for a day, and the rats were put under anesthesia and canula (diameter 3 mm) was inserted into the anus to the depth of 8 cm. 25 mg/ml of TNBS (Trinitrobenzene sulfonic acid) dissolved in 50% ethanol solution was injected to each rat and the rats were positioned at feature of tail up for 1 minute. The solution flowing out was removed and the rats were once washed with 1.5 ml of saline solution. After colitis was induced, the compound of the present invention was administered orally or rectally from the next day of inducing to the 6th day. For control medicine, sulfasalazine […] was used for oral administration and prednisolone was used for rectal administration. And for control group, 5% HPMC was administered. On the 7th day of experiment, each group of the rats was put under ether anesthesia for autopsy. The colon was extracted. After 1% formalin solution was injected into the cavity of the extracted colon to inflate, the both ends of it were bonded with each other, which was then fixed in 1% formalin solution for 2 hours. The all-fixed colon was cut to lengthy direction and washed to remove surrounding fat tissues and connective fissaes. Cecum was removed and the weight of the colon and the rectum was measured. The area of ulcer lesion and inflammatory region were measured to mark scores according to the criterion. Then they were fixed in 10% neutral formalin solution, and the tissue examination of lesion site was performed by a general method to mark scores according to criterion.
Clinical symptoms: Daily, clinical symptoms and survival of the animals were observed. The weight of animals was measured at the beginning day, the 3rd day and the 8th day of the experiment.
Observation with naked eye: The number and the width of the ulcer and lesion area formed in the large intestine were measured and recorded. By using modified Wallace's method (Can. J. Physiol. Pharmacol., 1988, 66: 422), lesion examined with the naked eye was scored and the average value of each group was compared. The standard of lesion scores as criterion of the damage of the colon by Wallace's method […] is as follows.
(0: normal, non-damaged, 1: congestion without ulcer, 2: congestion and thickening of intestinal wall without ulcer, 3: an ulcer lesion without thickening of intestinal wall, 4: more than two ulcerous/inflammatory lesion, 5: more than two ulcerous/inflammatory lesion or the length of ulcerous/inflammatory lesion is more than 1 cm, 6-10: when the length of lesion is over 2 cm, one point increases every time 1 cm of the length of ulcerous/inflammatory increases, for example: when the ulcer length is 3 cm, the point is 7)
Pathological tissue examination: The colon was trimmed at 3 cm interval from the rectum to the cecum, including the site of lesion examined with the naked eye, to make at least 4 specimens per an individual. Pathological tissue examination on the specimens was performed and the results were scored by modified method of Moyama (Ann. Clin. Lab. Sci., 1990, 20: 420). And the highest score was regarded as the score of an individual. When the lesion cannot be examined with the naked eye, the other specimen having lesion was trimmed, at 3 cm interval, from another individual.

[5] = listed as 7-carboxymethyloxy-3′,4′,5-trimethoxy flavone.monohydrate

SMILES | ED50 [1] | Weight changes according to the time lapse (%) ([2]; 0 day) | Weight changes according to the time lapse (%) ([2]; 1 day) | Weight changes according to the time lapse (%) ([2]; 2 day) | Weight changes according to the time lapse (%) ([2]; 3 day) | Weight changes according to the time lapse (%) ([2]; 6 day) | Weight changes according to the time lapse (%) ([3]; 0 h) | Weight changes according to the time lapse (%) ([3]; 2 h) | Weight changes according to the time lapse (%) ([3]; 4 h) | Weight changes according to the time lapse (%) ([3]; 6 h) | Weight changes according to the time lapse (%) ([3]; 1 day) | Weight changes according to the time lapse (%) ([3]; 3 day) | Weight changes according to the time lapse (%) ([3]; 6 day) | also measured
O=C(NC(Cc1cc(=O)[nH]c2ccccc12)C(=O)O)c1ccc(Cl)cc1 (centres unmarked) [Rebamipide, 2-(4-chlorobenzoylamino)-3-(2-(1H)-quinolinone-4-yl)propanonic acid, reference compound] | 44.2 mg/kg |  |  |  |  |  |  |  |  |  |  |  |  | 
COc1ccc(-c2cc(=O)c3c(OC)cc(OCC(=O)O)cc3o2)cc1OC [Ethanol solvate, 7-carboxymethyloxy-3′,4′,5-trimethoxy flavone.ethanol solvate] |  | 0% | −4.1% | −6.5% | −6.5% | −6.5% |  |  |  |  |  |  |  | weight change / conversion (in words) [2]: converted into monohydrate; weight decrease (average) ([2]; after one day): 4.1%; weight decrease (average) ([2]; after two days, constant thereafter): 6.5%
COc1ccc(-c2cc(=O)c3c(OC)cc(OCC(=O)O)cc3o2)cc1OC [Monohydrate, 7-carboxymethyloxy-3′,4′,5-trimethoxy flavone.monohydrate] | 0.33 mg/kg | 0% | −0.3% | +0.3% | +0.3% | +0.3% | 0% | −0.2% | −0.3% | +0.2% | −0.3% | +0.3% | +0.3% | weight change / hygroscopicity (in words) [3, 5]: did not show any weight change; weight change / hygroscopicity (in words) ([3]; listed as monohydrate): no weight change; weight change / conversion (in words) [2, 5]: did not show any weight change; protecting effect on the damage of gastric mucosa relative to Rebamipide ([1]; ratio of ED50): at least 100 times; effect on the TNBS-induced inflammatory colitis model (in words) ([4]; oral and rectal administration): showed inhibiting effect; Lesion score ([4]; orally administered, 0.3 mg/kg p.o, control 5% HPMC 9.0): 7.5; Lesion score ([4]; orally administered, 3 mg/kg p.o, control 5% HPMC 9.0): 5.9; Lesion score ([4]; rectally administered, 0.3 mg/kg, control 5% HPMC 5.3): 2.0
O=C(O)c1cc(/N=N/c2ccc(S(=O)(=O)Nc3ccccn3)cc2)ccc1O [Sulfasalazine, reference compound] |  |  |  |  |  |  |  |  |  |  |  |  |  | Lesion score ([4]; orally administered, 100 mg/kg p.o, control 5% HPMC 9.0): 7.7
COc1ccc(-c2cc(=O)c3c(OC)cc(OCC(=O)O)cc3o2)cc1OC [Anhydride, reference compound] |  |  |  |  |  |  | 0% | +3.4% | +4.7% | +4.7% | +4.6% | +4.5% | +4.6% | Weight changes according to the time lapse (%) ([3]; 2 h, listed as 7-carboxymethyloxy-3′,4′,5-trimethoxy flavone.anhydride): 3.4%; weight increase (average) ([3]; from the 4th hour): 4.6%
C[C@]12C=CC(=O)C=C1CC[C@@H]1[C@@H]2[C@@H](O)C[C@@]2(C)[C@H]1CC[C@]2(O)C(=O)CO [Prednisolone, reference compound] |  |  |  |  |  |  |  |  |  |  |  |  |  | Lesion score ([4]; rectally administered, 1 mg/kg, control 5% HPMC 5.3): 4.8
